Measured values as given in ChEMBL document CHEMBL5154783, “Design, synthesis, and evaluation of novel 3-thiophene derivatives as potent fungistatic and fungicidal reagents based on a conformational restriction strategy” (Eur J Med Chem, 2022).

Columns and labels:
Format in all cases: functional
Candida albicans [1] = assay: Antifungal activity against Candida albicans ATCC SC5314 assessed as fungal growth inhibition by CLSI based serial microbroth dilution method
Candida albicans [2] = assay: Antifungal activity against Candida albicans CPCC400616 assessed as fungal growth inhibition by CLSI based serial microbroth dilution method
Candida tropicalis = assay: Antifungal activity against Candida tropicalis CGMCC 2.3739 assessed as fungal growth inhibition by CLSI based serial microbroth dilution method
Cryptococcus neoformans = assay: Antifungal activity against Cryptococcus neoformans CGMCC 2.3161 assessed as fungal growth inhibition by CLSI based serial microbroth dilution method
Candida parapsilosis = assay: Antifungal activity against Candida parapsilosis GIM 2.190 assessed as fungal growth inhibition by CLSI based serial microbroth dilution method; details: Lodderomyces parapsilosis
Nakaseomyces glabratus = assay: Antifungal activity against Candida glabrata clinical isolate assessed as fungal growth inhibition by CLSI based serial microbroth dilution method
Pichia kudriavzevii = assay: Antifungal activity against Candida krusei GIM 2.1 assessed as fungal growth inhibition by CLSI based serial microbroth dilution method
Aspergillus fumigatus = assay: Antifungal activity against Aspergillus fumigatus CGMCC 3.7795 assessed as fungal growth inhibition by CLSI based serial microbroth dilution method
Candida albicans [3] = assay: Antifungal activity against FLC and ITC-resistant Candida albicans 17 assessed as fungal growth inhibition by CLSI based serial microbroth dilution method
Candida albicans [4] = assay: Antifungal activity against FLC-resistant Candida albicans CaR assessed as fungal growth inhibition by CLSI based serial microbroth dilution method
Candida albicans [5] = assay: Antifungal activity against FLC-resistant Candida albicans 901 assessed as fungal growth inhibition by CLSI based serial microbroth dilution method
Candida albicans [6] = assay: Antifungal activity against FLC-resistant Candida albicans 904 assessed as fungal growth inhibition by CLSI based serial microbroth dilution method
Candida albicans [7] = assay: Antifungal activity against FLC-resistant Candida albicans 632 assessed as fungal growth inhibition by CLSI based serial microbroth dilution method
Candida albicans [8] = assay: Antifungal activity against FLC-resistant Candida albicans 100 assessed as fungal growth inhibition by CLSI based serial microbroth dilution method
Candida albicans [9] = assay: Antifungal activity against FLC-resistant Candida albicans 103 assessed as fungal growth inhibition by CLSI based serial microbroth dilution method
Candida albicans [10] = assay: Antifungal activity against FLC-resistant Candida albicans 311 assessed as fungal growth inhibition by CLSI based serial microbroth dilution method

Measured: MIC

CCC(C)n1ncn(-c2ccc(N3CCN(c4ccc(OCC5COC(Cn6cncn6)(c6ccc(Cl)cc6Cl)O5)cc4)CC3)cc2)c1=O (centres undefined) [ITRACONAZOLE]
< 0.03 µg/mL: Candida albicans [2] | Candida tropicalis
0.03 µg/mL: Candida albicans [1]
0.125 µg/mL: Cryptococcus neoformans | Candida parapsilosis | Nakaseomyces glabratus | Pichia kudriavzevii | Aspergillus fumigatus

Fc1cccc(CC2(Cn3ccnc3)COC(c3ccc(-c4ccsc4)cc3)=N2)c1 (centres undefined)
> 64 µg/mL: Candida albicans [1] | Candida albicans [2] | Candida tropicalis | Cryptococcus neoformans | Candida parapsilosis | Nakaseomyces glabratus | Aspergillus fumigatus
1 µg/mL: Pichia kudriavzevii

Fc1ccc(CC2(Cn3ccnc3)COC(c3ccc(-c4ccsc4)cc3)=N2)c(F)c1 (centres undefined)
2 µg/mL: Pichia kudriavzevii
> 64 µg/mL: Candida albicans [1] | Candida albicans [2] | Candida tropicalis | Cryptococcus neoformans | Candida parapsilosis | Nakaseomyces glabratus | Aspergillus fumigatus

Clc1ccc(CC2(Cn3ccnc3)COC(c3ccc(-c4ccsc4)cc3)=N2)c(Cl)c1 (centres undefined)
> 64 µg/mL: Candida albicans [1] | Candida albicans [2] | Candida tropicalis | Cryptococcus neoformans | Candida parapsilosis | Nakaseomyces glabratus | Pichia kudriavzevii | Aspergillus fumigatus

CC(C)c1ccc(CC2(Cn3ccnc3)COC(c3ccc(-c4ccsc4)cc3)=N2)cc1 (centres undefined)
> 64 µg/mL: Candida albicans [1] | Candida albicans [2] | Candida tropicalis | Cryptococcus neoformans | Candida parapsilosis | Nakaseomyces glabratus | Pichia kudriavzevii | Aspergillus fumigatus

c1ccc(CC2(Cn3ccnc3)COC(c3ccc(-c4ccsc4)cc3)=N2)cc1 (centres undefined)
16 µg/mL: Aspergillus fumigatus | Candida albicans [7]
4 µg/mL: Candida albicans [3] | Candida albicans [5] | Candida albicans [10]
0.5 µg/mL: Candida albicans [1] | Candida parapsilosis
0.25 µg/mL: Candida albicans [2] | Candida tropicalis
8 µg/mL: Cryptococcus neoformans
> 64 µg/mL: Nakaseomyces glabratus | Pichia kudriavzevii
32 µg/mL: Candida albicans [4]
2 µg/mL: all other assays above

Brc1ccc(C2=NC(Cc3ccccc3)(Cn3ccnc3)CO2)cc1 (centres undefined)
> 64 µg/mL: Candida albicans [1] | Candida albicans [2] | Candida tropicalis | Candida parapsilosis | Nakaseomyces glabratus | Pichia kudriavzevii | Aspergillus fumigatus
4 µg/mL: Cryptococcus neoformans

c1ccc(CC2(Cn3ccnc3)COC(c3ccc(-c4ccoc4)cc3)=N2)cc1 (centres undefined)
4 µg/mL: Cryptococcus neoformans
0.5 µg/mL: Candida albicans [1]
> 64 µg/mL: Candida albicans [2] | Candida tropicalis | Candida parapsilosis | Nakaseomyces glabratus | Pichia kudriavzevii | Aspergillus fumigatus

Cc1cccc(CC2(Cn3ccnc3)COC(c3ccc(-c4ccsc4)cc3)=N2)c1 (centres undefined)
> 64 µg/mL: Candida albicans [1] | Candida albicans [2] | Candida tropicalis | Cryptococcus neoformans | Candida parapsilosis | Nakaseomyces glabratus | Pichia kudriavzevii | Aspergillus fumigatus

c1ccc(CC2(Cn3ccnc3)COC(c3ccc(-c4cncnc4)cc3)=N2)cc1 (centres undefined)
> 64 µg/mL: Candida albicans [1] | Candida albicans [2] | Candida tropicalis | Cryptococcus neoformans | Candida parapsilosis | Nakaseomyces glabratus | Pichia kudriavzevii | Aspergillus fumigatus

Clc1ccc(CC2(Cn3ccnc3)COC(c3ccc(-c4ccsc4)cc3)=N2)cc1 (centres undefined)
> 64 µg/mL: Candida albicans [1] | Candida albicans [2] | Candida tropicalis | Cryptococcus neoformans | Candida parapsilosis | Nakaseomyces glabratus | Pichia kudriavzevii | Aspergillus fumigatus

c1ccc(CC2(Cn3ccnc3)COC(c3ccc4c(c3)OCO4)=N2)cc1 (centres undefined)
> 64 µg/mL: Candida albicans [1] | Candida albicans [2] | Candida tropicalis | Cryptococcus neoformans | Candida parapsilosis | Nakaseomyces glabratus | Pichia kudriavzevii | Aspergillus fumigatus

FC(F)(F)c1ccc(CC2(Cn3ccnc3)COC(c3ccc(-c4ccsc4)cc3)=N2)cc1 (centres undefined)
> 64 µg/mL: Candida albicans [1] | Candida albicans [2] | Candida tropicalis | Cryptococcus neoformans | Candida parapsilosis | Nakaseomyces glabratus | Pichia kudriavzevii | Aspergillus fumigatus

c1ccc(CC2(Cn3ccnc3)COC(c3cc4ccccc4o3)=N2)cc1 (centres undefined)
> 64 µg/mL: Candida albicans [1] | Candida albicans [2] | Cryptococcus neoformans | Candida parapsilosis | Nakaseomyces glabratus | Pichia kudriavzevii | Aspergillus fumigatus
8 µg/mL: Candida tropicalis

c1ccc(CC2(Cn3ccnc3)COC(c3noc4c3CCc3ccccc3-4)=N2)cc1 (centres undefined)
16 µg/mL: Candida albicans [1] | Nakaseomyces glabratus
> 64 µg/mL: Cryptococcus neoformans | Candida parapsilosis | Pichia kudriavzevii | Aspergillus fumigatus
32 µg/mL: Candida albicans [2] | Candida tropicalis

c1ccc(COc2ccc(C3=NC(Cc4ccccc4)(Cn4ccnc4)CO3)cc2)cc1 (centres undefined)
> 64 µg/mL: Candida albicans [1] | Candida albicans [2] | Candida tropicalis | Cryptococcus neoformans | Candida parapsilosis | Nakaseomyces glabratus | Pichia kudriavzevii | Aspergillus fumigatus

c1ccc(CC2(Cn3ccnc3)COC(c3cc(-c4ccccc4)on3)=N2)cc1 (centres undefined)
2 µg/mL: Aspergillus fumigatus
4 µg/mL: Cryptococcus neoformans
> 64 µg/mL: Candida albicans [1] | Candida albicans [2] | Candida tropicalis | Candida parapsilosis | Nakaseomyces glabratus | Pichia kudriavzevii

Fc1cc(F)cc(CC2(Cn3ccnc3)COC(c3ccc(-c4ccsc4)cc3)=N2)c1 (centres undefined)
> 64 µg/mL: Candida albicans [1] | Candida albicans [2] | Candida tropicalis | Cryptococcus neoformans | Candida parapsilosis | Nakaseomyces glabratus | Pichia kudriavzevii | Aspergillus fumigatus

Fc1cccc(F)c1CC1(Cn2ccnn2)COC(c2ccc(-c3ccsc3)cc2)=N1 (centres undefined)
16 µg/mL: Candida albicans [1] | Candida albicans [2]
> 64 µg/mL: Candida tropicalis | Cryptococcus neoformans | Candida parapsilosis | Nakaseomyces glabratus | Pichia kudriavzevii | Aspergillus fumigatus

Fc1ccccc1CC1(Cn2ccnc2)COC(c2ccc(-c3ccsc3)cc2)=N1 (centres undefined)
0.5 µg/mL: Candida albicans [2] | Candida parapsilosis
1 µg/mL: Pichia kudriavzevii | Candida albicans [9]
4 µg/mL: Candida albicans [10]
8 µg/mL: Candida albicans [3] | Candida albicans [7]
16 µg/mL: Cryptococcus neoformans | Nakaseomyces glabratus
32 µg/mL: Aspergillus fumigatus | Candida albicans [4]
0.125 µg/mL: Candida albicans [1] | Candida tropicalis
2 µg/mL: all other assays above

c1ccc(CC2(Cn3ccnc3)COC(c3ccc4ccccc4c3)=N2)cc1 (centres undefined)
> 64 µg/mL: Candida albicans [1] | Candida albicans [2] | Candida tropicalis | Candida parapsilosis | Nakaseomyces glabratus | Pichia kudriavzevii | Aspergillus fumigatus
4 µg/mL: Cryptococcus neoformans

Fc1cccc(F)c1CC1(Cn2cnnn2)COC(c2ccc(-c3ccsc3)cc2)=N1 (centres undefined)
16 µg/mL: Candida albicans [1] | Candida albicans [2]
> 64 µg/mL: Candida tropicalis | Cryptococcus neoformans | Candida parapsilosis | Nakaseomyces glabratus | Pichia kudriavzevii | Aspergillus fumigatus

FC(F)(F)c1ccccc1CC1(Cn2ccnc2)COC(c2ccc(-c3ccsc3)cc2)=N1 (centres undefined)
8 µg/mL: Candida albicans [2]
32 µg/mL: Aspergillus fumigatus
16 µg/mL: Candida tropicalis | Nakaseomyces glabratus
0.125 µg/mL: Candida albicans [1]
> 64 µg/mL: Cryptococcus neoformans | Candida parapsilosis | Pichia kudriavzevii

Cc1ccc(CC2(Cn3ccnc3)COC(c3ccc(-c4ccsc4)cc3)=N2)cc1 (centres undefined)
> 64 µg/mL: Candida albicans [1] | Candida albicans [2] | Candida tropicalis | Cryptococcus neoformans | Candida parapsilosis | Nakaseomyces glabratus | Pichia kudriavzevii | Aspergillus fumigatus

Fc1ccc(CC2(Cn3ccnc3)COC(c3ccc(-c4ccsc4)cc3)=N2)cc1F (centres undefined)
> 64 µg/mL: Candida albicans [1] | Candida albicans [2] | Candida tropicalis | Cryptococcus neoformans | Candida parapsilosis | Nakaseomyces glabratus | Pichia kudriavzevii | Aspergillus fumigatus

FC(F)(F)c1cccc(CC2(Cn3ccnc3)COC(c3ccc(-c4ccsc4)cc3)=N2)c1 (centres undefined)
> 64 µg/mL: Candida albicans [1] | Candida albicans [2] | Candida tropicalis | Cryptococcus neoformans | Candida parapsilosis | Nakaseomyces glabratus | Pichia kudriavzevii | Aspergillus fumigatus

FC(F)(F)Oc1ccc(CC2(Cn3ccnc3)COC(c3ccc(-c4ccsc4)cc3)=N2)cc1 (centres undefined)
> 64 µg/mL: Candida albicans [1] | Candida albicans [2] | Candida tropicalis | Cryptococcus neoformans | Candida parapsilosis | Nakaseomyces glabratus | Pichia kudriavzevii | Aspergillus fumigatus

c1ccc(CC2(Cn3ccnc3)COC(c3cc4ccccc4s3)=N2)cc1 (centres undefined)
2 µg/mL: Cryptococcus neoformans
> 64 µg/mL: Candida albicans [1] | Candida albicans [2] | Candida tropicalis | Candida parapsilosis | Nakaseomyces glabratus | Pichia kudriavzevii | Aspergillus fumigatus

Clc1ccccc1CC1(Cn2ccnc2)COC(c2ccc(-c3ccsc3)cc2)=N1 (centres undefined)
16 µg/mL: Nakaseomyces glabratus | Aspergillus fumigatus
1 µg/mL: Candida parapsilosis
> 64 µg/mL: Cryptococcus neoformans | Pichia kudriavzevii
0.125 µg/mL: Candida albicans [1]
8 µg/mL: Candida albicans [2]
0.5 µg/mL: Candida tropicalis

CC(C)(C)c1ccc(CC2(Cn3ccnc3)COC(c3ccc(-c4ccsc4)cc3)=N2)cc1 (centres undefined)
> 64 µg/mL: Candida albicans [1] | Candida albicans [2] | Candida tropicalis | Cryptococcus neoformans | Candida parapsilosis | Nakaseomyces glabratus | Pichia kudriavzevii | Aspergillus fumigatus

Clc1cccc(CC2(Cn3ccnc3)COC(c3ccc(-c4ccsc4)cc3)=N2)c1 (centres undefined)
> 64 µg/mL: Candida albicans [1] | Candida albicans [2] | Candida tropicalis | Cryptococcus neoformans | Candida parapsilosis | Nakaseomyces glabratus | Pichia kudriavzevii | Aspergillus fumigatus
